Where a name gives a salt, the structure may show the parent alone. Read-outs that look alike come from different tables or passages of the source.
Tests used:
[1] = molecular target: T1, serotonin 4 (Rattus norvegicus, UniProt Q62758); test: Effect of relaxing the contraction of muscular layer of esophageal mucosa of rat by stimulation with carbachol (activity of serotonin 4 as agonist); assay type: cell-based
T1 construct: The esophagus of a rat was extirpated and freed from the outer tunica propria to obtain the muscular layer of mucosa; from tissue; host or cells: muscular layer of mucosa of rat esophagus
T1 sequence (Q62758 whole entry): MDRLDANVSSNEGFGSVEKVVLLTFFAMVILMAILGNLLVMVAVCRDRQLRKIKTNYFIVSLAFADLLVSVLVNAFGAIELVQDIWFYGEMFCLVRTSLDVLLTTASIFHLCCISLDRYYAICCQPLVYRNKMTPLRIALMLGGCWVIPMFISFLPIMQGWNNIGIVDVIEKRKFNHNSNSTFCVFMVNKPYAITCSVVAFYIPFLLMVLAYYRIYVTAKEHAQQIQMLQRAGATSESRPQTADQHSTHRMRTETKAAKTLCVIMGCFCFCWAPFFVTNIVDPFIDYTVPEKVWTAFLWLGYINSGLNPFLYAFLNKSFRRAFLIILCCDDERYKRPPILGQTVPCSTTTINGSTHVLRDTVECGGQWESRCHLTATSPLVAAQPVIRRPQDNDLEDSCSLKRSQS
Protocol: This experiment was made according to the method of Baxter et al. [see Naunyn-Schmiedeberg's Arch. […] The esophagus of a rat was extirpated and freed from the outer tunica propria to obtain the muscular layer of mucosa. […] A load of 0.5 g was applied to each sample and the reaction was recorded isometrically. 1 μM of carbachol was added to each sample to cause contraction, followed by the cumulative addition thereto of a solution of a test compound. The effect of the test compound was determined as the ratio (%) of relaxation based on the maximum contraction caused by carbachol.

[2] = test system: gastric emptying function; test: Activity for increasing gastric emptying function; assay type: in vivo, rat (Fischer male); settings: oral, one hour before test food, *: minimum effective dose
Protocol: [Experimental Example 3] Activity for increasing gastric emptying function
This experiment was made according to the method of Decktor et al. [see Eur. J. Pharmacol., 147, 313-316 (1988)]. Fischer male rats (weight: 160 to 180 g) were fasted for 18 hours before 3 ml of a test food comprising methylcellulose, beef bouillon, casein, sugar and corn starch was orally administered to each rat. One hour after the administration, the stomach was extirpated from each rat. The gastric emptying ratio was calculated from the weight of the test food remaining in the stomach. The percentage increment of the gastric emptying function was determined by comparing the gastric emptying ratio of a medicated rat with that of a control rat. Each test compound (5 ml/kg) was orally administered one hour before the administration of the test food. BRL 24924 was used as a control in this experiment.

[3] = molecular target: T2, serotonin 3 (Cavia porcellus, UniProt O70212); test: Antagonism against 2-methyl-serotonin-induced contraction of ileum (serotonin 3 antagonism); assay type: cell-based, guinea pig (Hartley male); settings: vs 2-methylserotonin, 30 minutes with test compound, 37° C.
T2 construct: from tissue; host or cells: nonterminal ileum of Hartley male guinea pig
T2 sequence (O70212 20-490): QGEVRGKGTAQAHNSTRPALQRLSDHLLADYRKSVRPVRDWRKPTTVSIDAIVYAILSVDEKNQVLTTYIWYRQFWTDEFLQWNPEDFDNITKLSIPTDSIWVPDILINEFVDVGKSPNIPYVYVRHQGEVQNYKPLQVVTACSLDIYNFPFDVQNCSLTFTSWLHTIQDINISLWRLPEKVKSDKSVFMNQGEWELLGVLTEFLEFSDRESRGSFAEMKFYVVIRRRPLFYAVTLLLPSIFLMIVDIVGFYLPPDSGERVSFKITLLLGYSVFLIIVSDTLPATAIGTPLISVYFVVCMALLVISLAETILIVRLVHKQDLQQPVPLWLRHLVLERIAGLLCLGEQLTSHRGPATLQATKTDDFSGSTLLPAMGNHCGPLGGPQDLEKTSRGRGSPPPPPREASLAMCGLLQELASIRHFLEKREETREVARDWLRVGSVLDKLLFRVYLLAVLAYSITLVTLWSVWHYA
Protocol: [Experimental Example 1] Antagonism against 2-methyl-serotonin-induced contraction of ileum (serotonin 3 antagonism)
This experiment was made according to the method of Sanger et al. [see Eur. J. Pharmacol., 159, 113-124 (1989)]. The nonterminal ileum of a Hartley male guinea pig was suspended in the Krebs solution (37° C.) by applying a load of 0.5 g, and a gaseous mixture comprising 95% of oxygen and 5% of carbon dioxide was passed through the solution. The contraction of the ileum was isometrically determined. After allowing the ileum to stand for one or more hours for stabilization, a solution of a test compound was added to the solution, and after 30 minutes, 2-methylserotonin was noncumulatively added. The pA2 value was calculated from the rightward shift of the dose-response curve of the 2-methylserotonin-induced contraction caused by the test compound according to the method of Rossum et al. [see Arch. Int. Pharmacodyn. 143, 299(1963)]. BRL 24924 (Renzapride) was used as a control in this experiment.
The structural formula of BRL 24924 is as follows: [drawing 19]

[4] = test system: cisplatin-induced vomiting; test: Activity against cisplatin-induced vomiting of beagle; assay type: in vivo; settings: through the vein of forefoot, one hour after 3 mg/kg cisplatin, 5-hour period
Protocol: [Experimental Example 2] Activity against cisplatin-induced vomiting of beagle
Beagles weighing 7 to 12 kg were used. 3 mg/kg of cisplatin (a product of Sigma) (1 ml/kg of physiological saline) was administered to each beagle through the vein of one of its forefeet. One hour after the administration, physiological saline (0.2 ml/kg) was administered to a control group of beagles and a solution of a test compound in physiological saline was administered to a test group of beagles, each through the vein of the other forefoot. The frequency of vomiting observed over a 5-hour period from the administration of cisplatin was recorded and the inhibitory ratio of the test compound was calculated according to the following formula.

[5] = 50% relaxation of maximum contraction caused by 1 μM carbachol, cumulative addition, 37° C., read-out: Effect of relaxing the muscular layer of esophageal mucosa of rat EC50
[6] = guinea pig nonterminal ileum, read-out: pA2 (converted)
[7] = pA2, guinea pig nonterminal ileum

Row | Compound | EC50 [1, 5] [nM] | Percentage increment of gastric emptying function (%) ([2]; 0.1 mg/kg) | Percentage increment of gastric emptying function (%) ([2]; 0.3 mg/kg) | Percentage increment of gastric emptying function (%) ([2]; 0.03 mg/kg) | also measured
1 | CC#C[C@H](C)Oc1cc(N)c(Cl)cc1C(=O)NC1C2CC3CC1CN(C3)C2 (stereo partly drawn) [Example 55, (S)-N-(1-Azatricyclo[3.3.1.1^3,7]dec-10-yl)-4-amino-5-chloro-(1-methyl-2-butynyl)oxybenzamide hydrochloride] | 640 | – | – | – | –
2 | CC#C[C@H](C)Oc1cc(N)c(Cl)cc1C(=O)NC1CC2CC(OC)C(C1)N2C (single isomer, unassigned) [28 fraction 2] | > 10000 | – | – | – | –
3 | COc1cc(N)c(Cl)cc1C(=O)NC1CCN2CCCC1C2 (centres unmarked) [BRL 24924, Renzapride, reference compound] | 300 | 1.9 | 6.5 | – | Percentage increment of gastric emptying function (%) ([2]; 1 mg/kg): 18.5%; Kb [3, 6]: 251 nM; Inhibitory ratio against cisplatin-induced vomiting (%) ([4]; 0.03 mg/kg): 19%; Inhibitory ratio against cisplatin-induced vomiting (%) ([4]; 0.1 mg/kg): 61%
4 | CC#C[C@H](C)Oc1cc(N)c(Cl)cc1C(=O)NC1CCC2CCC1N2C (single isomer, unassigned) [53 fraction 2-1] | 300 | 26.7 | 29.0 | 22.2 | Percentage increment of gastric emptying function (%) ([2]; 0.01 mg/kg): 14.4%; Kb [3, 7]: 2.51 nM
5 | CC#C[C@H](C)Oc1cc(N)c(Cl)cc1C(=O)NC1CCN2CCCC1C2 (single isomer, unassigned) [31 fraction 2] | 190 | 25.8 | 33.2 | 24.6 | Percentage increment of gastric emptying function (%) ([2]; 0.01 mg/kg): 4.5%; Kb [3, 6]: 5.01 nM; Inhibitory ratio against cisplatin-induced vomiting (%) ([4]; 0.03 mg/kg): 63%; Inhibitory ratio against cisplatin-induced vomiting (%) ([4]; 0.1 mg/kg): 92%
6 | CC#C[C@H](C)Oc1cc(N)c(Cl)cc1C(=O)NC1CCN2CCOC1C2 (single isomer, unassigned) [20 fraction 1] | 60 | 22.9 | 11.5 | 8.9 | Percentage increment of gastric emptying function (%) ([2]; 0.01 mg/kg): 3.9%; Kb [3, 6]: 63.1 nM; Inhibitory ratio against cisplatin-induced vomiting (%) ([4]; 0.1 mg/kg): 22%
7 | CC#C[C@H](C)Oc1cc(N)c(Cl)cc1C(=O)NC1CCC2CCC1N2C (single isomer, unassigned) [53 fraction 2-2] | 180 | 21.3 | 28.8 | 6.6 | Kb [3, 7]: 12.6 nM
8 | CC#C[C@H](C)Oc1cc(N)c(Cl)cc1C(=O)NC1CCN2CCCC1C2 (single isomer, unassigned) [31 fraction 1] | 44 | 0.8 | 14.1 | 0.8 | Kb [3, 6]: 63.1 nM
9 | CC#C[C@H](C)Oc1cc(N)c(Cl)cc1C(=O)NC1C2CCC1CN(C)C2 (stereo partly drawn) [Example 35, (S)-N-(3-Methyl-3-azabicyclo[3.2.1]oct-8α-yl) -4-amino-5-chloro-2-(1-methyl-2-butynyl)oxybenzamide hydrochloride] | 2000 | – | – | – | –
10 | CC#C[C@H](C)Oc1cc(N)c(Cl)cc1C(=O)NC1CCC2CCC1N2C (single isomer, unassigned) [53 fraction 2] | 310 | 14.4 | 16.1 | – | –
11 | CC#CC(CCOCC)Oc1cc(N)c(Cl)cc1C(=O)NC1CC2CCC(C1)N2C (stereo not drawn) [Example 42, N-(8Methyl-8-azabicylo[3.2.1]oct-3α-yl)-4-amino-5-chloro-2-(1-ethoxyethyl-2-butynyl]oxybenzamide hydrochloride] | 6200 | – | – | – | –
12 | CC#C[C@H](C)Oc1cc(N)c(Cl)cc1C(=O)NC1CC2CC(OCC)CC(C1)N2C (stereo partly drawn) [Example 50, (S)-N-(3-Ethoxy-9-methyl-9-azabicyclo[3.3.1]-1non-9α- or 9β-yl)-4-amino-5-chloro-2-(1-methyl-2-butynyl)oxybenzamide hydrochloride] | > 10000 | – | – | – | –
13 | CC#C[C@H](C)Oc1cc(N)c(Cl)cc1C(=O)NC1CC2CCC(C1)N2 (some centres unmarked) [Example 29] | > 10000 | – | – | – | –
14 | CC#C[C@H](C)Oc1cc(N)c(Cl)cc1C(=O)NC1CCN2CCCC1C2 (stereo partly drawn) [Example 6, N-(1-Azabicyclo[3.3.1]non-4α-yl)-4-amino-5-chloro-2-((S-1-methyl-2-butynyl/oxybenzamide hydrochloride] | 110 | – | – | – | Kb [3, 6]: 20 nM; Inhibitory ratio against cisplatin-induced vomiting (%) ([4]; 0.1 mg/kg): 77%
15 | CC#C[C@H](C)Oc1cc(N)c(Cl)cc1C(=O)NC1CC2CCCC(C1)N2C (some centres unmarked) [Example 4, hydrochloride] | 1300 | – | – | – | –
16 | CC#C[C@H](C)Oc1cc(N)c(Cl)cc1C(=O)NC1C2CN(C)CC1CN(C)C2 (stereo partly drawn) [Example 44, (S)-N-(3,7-Dimethyl-3,7-diazabicyclo[3.3.1]non-9-yl)-4-amino-5-chloro-2-(1-methyl-2-butynyl)oxybenzamide hydrochloride] | – | – | – | – | EC50 [1]: 110 nM
17 | CC#C[C@H](C)Oc1cc(N)c(Cl)cc1C(=O)NC1CC2CN(C)CC(C1)N2C (stereo partly drawn) [Example 19, (S)-N-(3,9-Dimethyl-3,9-diazabicyclo[3.3.1]non-7α-yl)-4-amino-5-chloro-2-(1-methyl-2-butynyl/oxybenzamidedihydrochloride] | > 10000 | – | – | – | –
18 | CC#C[C@H](C)Oc1cc(N)c(Cl)cc1C(=O)NC1CCN2CCOC1C2 (single isomer, unassigned) [20 fraction 2] | 33 | 23.3 | 21.8 | 14.0 | Kb [3, 6]: 12.6 nM; Inhibitory ratio against cisplatin-induced vomiting (%) ([4]; 0.03 mg/kg): 14%; Inhibitory ratio against cisplatin-induced vomiting (%) ([4]; 0.1 mg/kg): 24%
19 | CC#C[C@H](C)Oc1cc(N)c(Cl)cc1C(=O)NC1CCN2CCOC1C2 (stereo partly drawn) [Example 15, N-(4-Oxa-1-azabicyclo[3.3.1]non-6α-yl)-4-amino-5-chloro-2-((S)-1-methyl-2-butynyl/oxybenzamide hydrochloride] | 35 | 24.6 | 30.6 | – | –
20 | CC#C[C@H](C)Oc1cc(N)c(Cl)cc1C(=O)NC1CC2CC(OC)C(C1)N2C (single isomer, unassigned) [28 fraction 1] | > 10000 | – | – | – | –
21 | CC#C[C@H](C)Oc1cc(N)c(Cl)cc1C(=O)NC1CC2COCC(C1)N2C (some centres unmarked) [Example 2] | – | 19.8 | 30.6 | 19.7 | Percentage increment of gastric emptying function (%) ([2]; 0.01 mg/kg): 20.5%; EC50 [1]: 82 nM; Inhibitory ratio against cisplatin-induced vomiting (%) ([4]; 0.03 mg/kg): 14%; Inhibitory ratio against cisplatin-induced vomiting (%) ([4]; 0.1 mg/kg): 53%
